Laboratory results reported in US8476197B2, “Aminopropenoates as fungicides” (priority 2009, dated 2013).
Marks after values point to notes of the source that are not given here.

Conditions: pH 2.7

Row | SMILES | Log P
1 | CCOC(=O)C(C#N)=C(NC(C)COc1ccccc1Cl)c1cccnc1Cl (stereo not shown) [Compound 1164] | 3.78^[a]
2 | CCOC(=O)C(C#N)=C(NC(C)COc1ccc(C)cc1)c1cccnc1Cl (stereo not shown) [Compound 1165] | 3.94^[a]
3 | CCOC(=O)C(C#N)=C(NC(C)COc1ccc(F)cc1)c1cccnc1Cl (stereo not shown) [Compound 1166] | 3.62^[a]
4 | CCOC(=O)C(C#N)=C(NC(C)CCc1ccccc1)c1cccnc1Cl (stereo not shown) [Compound 1167] | 3.92^[a]
5 | CCOC(=O)C(C#N)=C(Nc1ccccc1OC(C)C)c1cccnc1Cl [Compound 1168] | 3.8^[a]
6 | CCOC(=O)C(C#N)=C(Nc1ccc(OC(F)F)cc1)c1cccnc1Cl [Compound 1169] | 3.19^[a]
7 | CCOC(=O)C(C#N)=C(Nc1ccc(SC)cc1)c1cccnc1Cl [Compound 1170] | 3.37^[a]
8 | CCOC(=O)C(C#N)=C(NCc1ccccc1SC)c1cccnc1Cl [Compound 1171] | 3.37^[a]
9 | CCOC(=O)C(C#N)=C(NC(C)COCc1ccccc1Cl)c1cccnc1Cl (stereo not shown) [Compound 1172] | 4.06^[a]
10 | CCOC(=O)C(C#N)=C(NC(C)COc1cccc(OC)c1)c1cccnc1Cl (stereo not shown) [Compound 1173] | 3.58^[a]
11 | CCOC(=O)C(C#N)=C(NC(C)CC)c1cccnc1Cl (stereo not shown) [Compound 1174] | 3^[a]
12 | CCCCCNC(=C(C#N)C(=O)OCC)c1cccnc1Cl [Compound 1175] | 3.53^[a]
13 | C=CCCCC(C=C)NC(=C(C#N)C(=O)OCC)c1cccnc1Cl (stereo not shown) [Compound 1176] | 4.01^[a]
14 | CCOC(=O)C(C#N)=C(NC(C)C1CC2CCC1C2)c1cccnc1Cl (stereo not shown) [Compound 1177] | 4.39^[a]
15 | CCOC(=O)C(C#N)=C(NC(C)COCC(C)(C)C)c1cccnc1Cl (stereo not shown) [Compound 1178] | 4.34^[a]
16 | CCOC(=O)C(C#N)=C(NC(C)COc1c(C)cccc1C)c1cccnc1Cl (stereo not shown) [Compound 1180] | 4.26^[a]
17 | C#CC(C)NC(=C(C#N)C(=O)OCC)c1cccnc1Cl (stereo not shown) [Compound 1181] | 2.66^[a]
18 | CCOC(=O)C(C#N)=C(NC(C)C1(Cl)CC1)c1cccnc1Cl (stereo not shown) [Compound 1182] | 3.33^[a]
19 | CCOC(=O)C(C#N)=C(NCCOC)c1cccnc1Cl [Compound 1183] | 2.17^[a]
20 | CCOC(=O)C(C#N)=C(NCCCCO)c1cccnc1Cl [Compound 1184] | 1.75^[a]
21 | CCOC(=O)C(C#N)=C(NCCC(C)C)c1cccnc1Cl [Compound 1185] | 3.44^[a]
22 | CCOC(=O)C(C#N)=C(NC1CCC1)c1cccnc1Cl [Compound 1186] | 2.92^[a]

Row | SMILES | Log P
23 | CCOC(=O)C(C#N)=C(NC(C)CCCC(C)C)c1cccnc1Cl (stereo not shown) [Compound 1187] | 4.62^[a]
24 | CCCCCC(C)NC(=C(C#N)C(=O)OCC)c1cccnc1Cl (stereo not shown) [Compound 1188] | 4.26^[a]
25 | CCOC(=O)C(C#N)=C(NC1CC1CC)c1cccnc1Cl (stereo not shown) [Compound 1190] | 3.23^[a]
26 | CCOC(=O)C(C#N)=C(NC(C)C1CCC1)c1cccnc1Cl (stereo not shown) [Compound 1191] | 3.55^[a]
27 | CCOC(=O)C(C#N)=C(NC(C)CC(=O)Nc1ccccc1C)c1cccnc1Cl (stereo not shown) [Compound 1192] | 2.8^[a]
28 | CCOC(=O)C(C#N)=C(NC(C)C(=O)Nc1ccc2ccccc2c1)c1cccnc1Cl (stereo not shown) [Compound 1193] | 3.51^[a]
29 | CCOC(=O)C(C#N)=C(NC(C)C(=O)OCC)c1cccnc1Cl (stereo not shown) [Compound 1194] | 2.82^[a]
30 | CCOC(=O)C(C#N)=C(NC(C(=O)OC)c1ccccc1)c1cccnc1Cl (stereo not shown) [Compound 1195] | 3.08^[a]
31 | CCOC(=O)C(C#N)=C(NC(CC(C)C)C(=O)OCC)c1cccnc1Cl (stereo not shown) [Compound 1196] | 3.89^[a]
32 | C=CC(COCc1ccccc1)NC(=C(C#N)C(=O)OCC)c1cccnc1Cl (stereo not shown) [Compound 1197] | 3.8^[a]
33 | CC#CC(C)NC(=C(C#N)C(=O)OCC)c1cccnc1Cl (stereo not shown) [Compound 1198] | 3.02^[a]
34 | CCNC(=O)C(C#N)=C(NC(C)C(C)C)c1cccnc1C#N (stereo not shown) [Compound 1199] | 2.64^[a]
35 | CCNC(=O)C(C#N)=C(NC(C)C(C)C)c1ccnc(Cl)c1Cl (stereo not shown) [Compound 1200] | 3.57^[a]
36 | CCNC(=O)C(C#N)=C(NC(C)c1ccccn1)c1ccnc(Cl)c1Cl (stereo not shown) [Compound 1201] | 2.53^[a]
37 | CCOC(=O)C(C#N)=C(NC(C)C(C)C)c1cn(C)nc1I (stereo not shown) [Compound 1202] | 3.22^[a]
38 | CCOC(=O)C(C#N)=C(NC(C)C(C)C)c1cn(C)nc1C (stereo not shown) [Compound 1203] | 2.8^[a]
39 | CCOC(=O)C(C#N)=C(NC(C)c1ccccn1)c1cn(C)nc1C (stereo not shown) [Compound 1204] | 1.99^[a]
40 | CCOC(=O)C(C#N)=C(NC(C)C(C)C)c1cn(C)nc1CC (stereo not shown) [Compound 1205] | 3.13^[a]
41 | CCOC(=O)C(C#N)=C(NC(C)c1ccccn1)c1cn(C)nc1CC (stereo not shown) [Compound 1206] | 2.25^[a]
42 | CCOC(=O)C(C#N)=C(NC(C)c1ccccn1)c1cn(C)nc1C(C)C (stereo not shown) [Compound 1207] | 2.58^[a]
43 | CCOC(=O)C(C#N)=C(NC(C)C(C)C)c1cn(C)nc1C(C)C (stereo not shown) [Compound 1208] | 3.46^[a]
